Source: patent publication US10975083B2, “Blood-brain barrier-penetrant dopamine-β-hydroxylase inhibitors” (BIAL—PORTELA & Cᵃ, S.A., priority 2016, dated 2021)
Where two headings read alike, the source gives them in different places.

Molecular target: T1, DβH (Homo sapiens, UniProt P09172)
T1 construct: reaction mixture (total volume 500 μl) contained: cellular homogenate (75 μg total protein); host or cells: SK-N-SH cell homogenate
T1 sequence (P09172 1-617): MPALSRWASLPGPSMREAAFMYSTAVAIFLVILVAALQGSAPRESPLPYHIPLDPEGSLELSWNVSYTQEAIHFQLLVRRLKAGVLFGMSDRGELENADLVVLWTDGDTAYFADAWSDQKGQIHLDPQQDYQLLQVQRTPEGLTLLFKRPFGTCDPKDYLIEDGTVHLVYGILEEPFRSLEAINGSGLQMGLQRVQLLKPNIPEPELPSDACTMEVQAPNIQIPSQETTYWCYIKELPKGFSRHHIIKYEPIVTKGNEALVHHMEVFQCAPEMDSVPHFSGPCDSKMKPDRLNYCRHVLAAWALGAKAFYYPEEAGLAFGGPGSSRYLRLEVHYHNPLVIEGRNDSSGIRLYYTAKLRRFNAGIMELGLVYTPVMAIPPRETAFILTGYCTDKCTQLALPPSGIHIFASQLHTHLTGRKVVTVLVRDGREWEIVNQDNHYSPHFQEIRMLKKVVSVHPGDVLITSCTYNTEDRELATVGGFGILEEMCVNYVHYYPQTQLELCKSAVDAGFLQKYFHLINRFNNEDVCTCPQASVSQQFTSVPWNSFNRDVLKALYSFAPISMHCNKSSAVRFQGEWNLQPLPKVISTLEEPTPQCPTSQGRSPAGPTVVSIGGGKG
Assay: DβH inhibition cell assay (SK-N-SH cellular homogenates, tyramine to octopamine)
Assay type: biochemical
Conditions: for remaining activity at 0.1 µM: inhibitor 0.1 μM, read-out: DβH activity in % of Ctrl (0.1 μM); for remaining activity at 1 µM: read-out: DβH activity in % of Ctrl (1 μM)
Procedure: The ability of a compound to inhibit DβH activity may be assessed using the following cell assay. […] . […] Fetal bovine serum was removed from cells for 4 h prior to collection.
For the preparation of cellular homogenates, media was removed and cell monolayers were washed with 50 mM Tris-HCl pH 7.4. Cells were subsequently scrapped off the flasks and were resuspended in 50 mM Tris pH 7.4. Cell suspensions were homogenized with SilentCrusher M (Heidolph) for a short stroke and resultant homogenates were aliquoted and stored frozen at −80° C.
Total protein was quantified in cellular homogenates with BioRad Protein Assay (BioRad) using a standard curve of BSA (50-250 μg/mL).
DβH activity was measured by a modification of the method of Nagatsu and Udenfriend (Nagatsu, T. and S. Udenfriend: “Photometric assay of dopamine-hydroxylase activity in human blood.” Clin. Chem. 18(9): 980-3, 1972) which is based on the enzymatic hydroxylation of tyramine into octopamine. The octopamine formed is subsequently oxidized to p-hydroxybenzaldehyde and measured by spectrophotometry. In brief, reaction mixture (total volume 500 μl) contained: cellular homogenate (75 μg total protein) sodium acetate pH 5.0 (200 mM), NEM (30 mM), CuSO4 (5 μM), catalase aqueous solution (0.5 mg/mL), pargyline-HCl (1 mM), sodium fumarate (10 mM), ascorbic acid (10 mM), inhibitor or vehicle and tyramine (25 mM). After a 10 min pre-incubation period at 37° C., the reaction was initiated by the addition of tyramine. Reaction was carried out for 45 min at 37° C. before termination with 50 μl PCA (2 M).
Samples were centrifuged for 3 min at 16100 g and supernatants were subjected to solid phase extraction. Solid phase extraction was performed using either SPE cartridges ISOLUTE SCX-3 (100 mg, 1 mL) or SPE 2 mL fixed 96 well plates ISOLUTE SCX-3 (100 mg) previously equilibrated with MilliQ water. Columns/plates were centrifuged at 150 g for 2 min. Eluate was discarded and matrix was washed with 1 mL of MilliQ water after which octopamine was eluted with 2×0.25 mL ammonium hydroxide (4 M). The oxidation of octopamine to p-hydroxybenzaldehyde was carried out for 6 min with 100 μl sodium periodate (2%) and was stopped with 100 μl sodium metabisulfite (10%). Absorbance was measured at 330 nm on a Spectramax microplate reader (Molecular Devices, Sunnyvale, Calif.). All enzymatic reactions were performed in duplicate. Results are reported in the table below as activity in % of control at the inhibitor concentration tested.

[1] = inhibitor 1 μM, SK-N-SH cell homogenate

| SMILES | remaining activity at 0.1 µM (SK-N-SH cell homogenate) | remaining activity at 1 µM [1] | remaining activity at 1 µM |
| --- | --- | --- | --- |
| Fc1cccc([C@]23C[C@H]2c2c[nH]c(=S)n2C3)c1F [Example 66, (5aS,6aR)-5a-(2,3-difluorophenyl)-5,5a,6,6a-tetrahydrocyclopropa[3,4]pyrrolo[1,2-c]imidazole-3(2H)-thione] | 51.1% | 7.9% |  |
| Fc1cccc([C@@]23C[C@@H]2c2c[nH]c(=S)n2C3)c1F [Example 67, (5aR,6aS)-5a-(2,3-difluorophenyl)-5,5a,6,6a-tetrahydrocyclopropa[3,4]pyrrolo[1,2-c]imidazole-3(2H)-thione] |  | 36.1% |  |
| Fc1ccc(F)c([C@]23C[C@H]2c2c[nH]c(=S)n2C3)c1F [Example 68, (5aS,6aR)-5a-(2,3,6-trifluorophenyl)-5,5a,6,6a-tetrahydrocyclopropa[3,4]pyrrolo[1,2-c]imidazole-3 (2H)-thione] |  | 5.1% |  |
| Fc1ccc(F)c([C@@]23C[C@@H]2c2c[nH]c(=S)n2C3)c1F [Example 69, (5aR,6aS)-5a-(2,3,6-trifluorophenyl)-5,5a,6,6a-tetrahydrocyclopropa[3,4]pyrrolo[1,2-c]imidazole-3 (2H)-thione] |  | 14.6% |  |
| Fc1ccc([C@]23C[C@H]2c2c[nH]c(=S)n2C3)c(F)c1 [Example 70, (5aS,6aR)-5a-(2,4-difluorophenyl)-5,5a,6,6a-tetrahydrocyclopropa[3,4]pyrrolo[1,2-c]imidazole-3(2H)-thione] |  | 35.7% |  |
| Fc1ccc([C@]23C[C@H]2c2c[nH]c(=S)n2C3)cc1F [Example 71, (5aS,6aR)-5a-(3,4-difluorophenyl)-5,5a,6,6a-tetrahydrocyclopropa[3,4]pyrrolo[1,2-c]imidazole-3(2H)-thione] |  | 48.5% |  |
| Fc1cc(F)c([C@]23C[C@H]2c2c[nH]c(=S)n2C3)cc1F [Example 72, (5aS,6aR)-5a-(2,4,5-trifluorophenyl)-5,5a,6,6a-tetrahydrocyclopropa[3,4]pyrrolo[1,2-c]imidazole-3 (2H)-thione] |  | 35% |  |
| Fc1cc(Cl)cc([C@]23C[C@H]2c2c[nH]c(=S)n2C3)c1 [Example 73, (5aS,6aR)-5a-(3-chloro-5-fluorophenyl)-5,5a,6,6a-tetrahydrocyclopropa[3,4]pyrrolo[1,2-c]imidazole-3 (2H)-thione] | 41.7% | 5.1% |  |
| Fc1ccc(Cl)cc1[C@]12C[C@H]1c1c[nH]c(=S)n1C2 [Example 74, (5aS,6aR)-5a-(5-chloro-2-fluorophenyl)-5,5a,6,6a-tetrahydrocyclopropa[3,4]pyrrolo[1,2-c]imidazole-3 (2H)-thione] | 21.9% | 1.8% |  |
| Fc1ccc(Cl)c([C@]23C[C@H]2c2c[nH]c(=S)n2C3)c1 [Example 75, (5aS,6aR)-5a-(2-chloro-5-fluorophenyl)-5,5a,6,6a-tetrahydrocyclopropa[3,4]pyrrolo[1,2-c]imidazole-3 (2H)-thione] |  | 18.1% |  |
| Cn1cc2n(c1=S)C[C@@]1(c3cc(F)cc(F)c3)C[C@@H]21 [Example 76, (5aS,6aR)-5a-(3,5-difluorophenyl)-2-methyl-5,5a,6,6a-tetrahydrocyclopropa[3,4]pyrrolo[1,2-c]imidazole-3 (2H)-thione] |  | 17.4% |  |
| Fc1cc(F)cc([C@]23C[C@H]2c2cn(C4CC4)c(=S)n2C3)c1 [Example 77, (5aS,6aR)-2-cyclopropyl-5 a-(3,5-difluorophenyl)-5,5a,6,6a-tetrahydrocyclopropa[3,4]pyrrolo[1,2-c]imidazole-3 (2H)-thione] |  | 23% |  |
| Cc1[nH]c(=S)n2c1[C@@H]1C[C@]1(c1cc(F)ccc1F)C2 [Example 78, (5aS,6aR)-5a-(2,5-difluorophenyl)-1-methyl-5,5a,6,6a-tetrahydrocyclopropa[3,4]pyrrolo[1,2-c]imidazole-3 (2H)-thione] |  | 10.9% |  |
| Cc1[nH]c(=S)n2c1[C@@H]1C[C@]1(c1cc(F)cc(F)c1)C2 [Example 79, (5aS,6aR)-5a-(3,5-difluorophenyl)-1-methyl-5,5a,6,6a-tetrahydrocyclopropa[3,4]pyrrolo[1,2-c]imidazole-3 (2H)-thione] |  | 13% |  |
| CCCCc1[nH]c(=S)n2c1C[C@@H](c1cc(F)cc(F)c1)C2 [Example 80, (S)-1-butyl-6-(3,5-difluorophenyl)-6,7-dihydro-2H-pyrrolo[1,2-c]imidazole-3(5H)-thione] |  |  | 56.7% |
| S=c1[nH]cc2n1CC(C1CCCCC1)C2 (stereo not drawn) [Example 81, 6-cyclohexyl-6,7-dihydro-2H-pyrrolo[1,2-c]imidazole-3(5H)-thione] |  | 59.4% |  |
| Fc1cc(F)c(F)c([C@@H]2Cc3c[nH]c(=S)n3C2)c1 [Example 82, (S)-6-(2,3,5-trifluorophenyl)-2,5,6,7-tetrahydro-3H-pyrrolo[1,2-c]imidazole-3-thione] | 90% | 20% |  |
| Fc1cc(F)c(F)c([C@H]2Cc3c[nH]c(=S)n3C2)c1 [Example 83, (R)-6-(2,3,5-trifluorophenyl)-2,5,6,7-tetrahydro-3H-pyrrolo[1,2-c]imidazole-3-thione] | 84% | 33.1% |  |
| Fc1cccc(F)c1[C@@H]1Cc2c[nH]c(=S)n2C1 [Example 84, (S)-6-(2,6-difluorophenyl)-2,5,6,7-tetrahydro-3H-pyrrolo[1,2-c]imidazole-3-thione] | 96.9% | 41.9% |  |
| Fc1ccc(Cl)c(F)c1[C@@H]1Cc2c[nH]c(=S)n2C1 [Example 85, (S)-6-(3-chloro-2,6-difluorophenyl)-2,5,6,7-tetrahydro-3H-pyrrolo[1,2-c]imidazole-3-thione] | 0% | 0% |  |
| Fc1ccc(Cl)c(F)c1[C@H]1Cc2c[nH]c(=S)n2C1 [Example 86, (R)-6-(3-chloro-2,6-difluorophenyl)-2,5,6,7-tetrahydro-3H-pyrrolo[1,2-c]imidazole-3-thione] | 25.3% | 0% |  |
| Fc1cccc(F)c1[C@H]1Cc2c[nH]c(=S)n2C1 [Example 87, (R)-6-(2,6-difluorophenyl)-2,5,6,7-tetrahydro-3H-pyrrolo[1,2-c]imidazole-3-thione] | 36.5% | 0% |  |
| Fc1ccc(Cl)c(F)c1[C@]12C[C@H]1c1n[nH]c(=S)n1C2 [Example 88, (5aS,6aR)-5a-(3-chloro-2,6-difluorophenyl)-5,5a,6,6a-tetrahydrocyclopropa[3,4]pyrrolo[2,1-c][1,2,4]triazole-3(2H)-thione] | 45.8% | 6.2% |  |
| Fc1cccc(Cl)c1[C@]12C[C@H]1c1c[nH]c(=S)n1C2 [Example 89, (5aS,6aR)-5a-(2-chloro-6-fluorophenyl)-5,5a,6,6a-tetrahydrocyclopropa[3,4]pyrrolo[1,2-c]imidazole-3 (2H)-thione] |  | 29.8% |  |
| Fc1ccc(Cl)c(F)c1[C@]12C[C@H]1c1c[nH]c(=S)n1C2 [Example 90, (5aS,6aR)-5a-(3-chloro-2,6-difluorophenyl)-5,5a,6,6a-tetrahydrocyclopropa[3,4]pyrrolo[1,2-c]imidazole-3 (2H)-thione] | 1.8% | 1% |  |
